Test results reported in US5457097A, “Androst-4-eno[4,5-b]pyrrole derivatives” (Farmitalia Carlo Erba S.r.l., priority 1992, dated 1995).

Target: T1, human placental aromatase (Homo sapiens, UniProt P11511)
T1 construct: utilizes the human placental microsomal fraction as enzyme source; from tissue; host or cells: human placenta, microsomal fraction
T1 sequence (P11511 1-503): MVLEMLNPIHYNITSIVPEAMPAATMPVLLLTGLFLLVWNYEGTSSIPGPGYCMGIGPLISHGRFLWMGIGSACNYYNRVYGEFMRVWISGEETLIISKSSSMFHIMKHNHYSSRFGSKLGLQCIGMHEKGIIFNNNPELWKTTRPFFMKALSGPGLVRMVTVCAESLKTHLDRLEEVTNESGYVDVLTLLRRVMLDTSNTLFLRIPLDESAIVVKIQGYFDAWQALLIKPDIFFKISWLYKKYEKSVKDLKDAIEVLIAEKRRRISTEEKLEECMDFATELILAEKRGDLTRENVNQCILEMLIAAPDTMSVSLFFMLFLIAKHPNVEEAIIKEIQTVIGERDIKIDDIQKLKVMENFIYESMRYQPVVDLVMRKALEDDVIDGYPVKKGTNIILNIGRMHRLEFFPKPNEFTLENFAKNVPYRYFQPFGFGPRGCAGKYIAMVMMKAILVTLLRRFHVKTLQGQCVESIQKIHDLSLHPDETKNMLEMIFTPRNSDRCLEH
Assay: in vitro aromatase inhibition test (Thompson and Siiteri), 3H2O release from [1β-3H]androstenedione
Assay type: biochemical
Settings: human placental microsomal fraction; [1β-3H]androstenedione 50 nM, NADPH, 15 min incubation at 37° C.; read-out: concentration producing 50% inhibition of human placental aromatase (IC50)
Method: The concentration of each compound required to reduce control aromatase activity by 50% (IC50) was determined by plotting % inhibition versus log of inhibitor concentration.

C[C@]12C=CC(=O)c3[nH]cc(c31)C[C@@H]1[C@@H]2CC[C@]2(C)C(=O)CC[C@@H]12 [3,17-dioxo-1'H-androsta-1,4-dieno[4,5-b]pyrrole] was tested, and the IC50 was 120 nM.
